IC50 and EC50 data for eleven compounds are collected here from US11401278B2, “Macrocyclic indole derivatives” (The Broad Institute, Inc., priority 2017, dated 2022).

For orientation: IC50 means the midpoint of a concentration-inhibition curve. The EC50 is the concentration at which the effect is half-maximal.

Values joined by “and” are separate entries in the source; they are usually repeats but may differ in a detail not shown here. Equal values may be shown once. Where a name gives a salt, the structure may show the parent alone. Read-outs that look alike come from different tables or passages of the source.

For series [1], the system named is SUDHL10. Description: Induction of cytotoxicity (Assay 6), SUDHL10. The note with it: read-out: Cytotox SUDHL10 [M] (median) IC50, CellTiter-Glo, 5 hours, SUDHL10.
The next series relates to HMC-1-8. Description: Antiproliferation assay (Assay 7), HMC-1-8. The settings on record: CellTiter-Glo, several values per example, read-out: Antiproli HMC-1-8 [M] IC50. The series is classed as cell-based. A digest of the protocol: (§1)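 Luminescent ATP-based viability (CellTiter-Glo) measured after 72 hours of compound treatment at 37° C, alongside a time-zero plate read on the day of plating.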
Background: Cellular ATP, detected with luciferase, serves as a proxy for viable cell number.

The test system of series [2] is SUDHL5. Description: Antiproliferation assay (Assay 7), SUDHL5. The series is classed as cell-based. The settings on record: CellTiter-Glo, median, read-out: Antiproli SUDHL5 [M] (median) IC50. A digest of the protocol:
as §1

For the next series, the system named is AMO-1. Description: Antiproliferation assay (Assay 7), AMO-1. The series is classed as cell-based. The note with it: CellTiter-Glo, 72 hours, several values per example, read-out: Antiproli AMO-1 [M] IC50. The method in brief:
as §1

Series [3] relates to SUDHL5. Nature of the series: Induction of caspase-3/7 activity (Assay 4), SUDHL5. It counts as cell-based. The settings on record: caspase-3/7 induction, median. A digest of the protocol:
(§2)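 Caspase-3/7 activity measured by Caspase-Glo 3/7 luminescence in DLBCL cells after 3 h compound treatment at 37 °C. Medium-only background subtracted. EC50 fitted with C0 fixed at 1 and top set to the reference compound's plateau/max induction.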

The test system of series [4] is SUDHL10. Nature of the series: Induction of caspase-3/7 activity (Assay 4), SUDHL10. The series is classed as cell-based. The note with it: caspase-3/7 induction, median. A digest of the protocol: as §2
The target of a further series is BCL-2 (Homo sapiens (Human), UniProt P10415). Nature of the series: Protein-protein interaction assay BCL-2/Bad BH3 peptide (BCL-2 assay, TR-FRET). The series is classed as binding. The note with it: His-BCL-2 / Bad BH3 peptide, median. The method in brief: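 His-BCL-2 (1-211, E. coli) at 1 nM preincubated 10 min at 22 °C with compound (11 concentrations, 0.1 nM-20 μM, duplicates), then 1 nM biotinylated Bad BH3 peptide added. After 1 h at 22 °C plus overnight at 4 °C, TR-FRET 665/620 ratio normalised to DMSO and no-BCL-2 controls, IC50 from 4-parameter fit.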
Chain of BCL-2 (P10415 other isoform, or with tags, fused parts or gaps): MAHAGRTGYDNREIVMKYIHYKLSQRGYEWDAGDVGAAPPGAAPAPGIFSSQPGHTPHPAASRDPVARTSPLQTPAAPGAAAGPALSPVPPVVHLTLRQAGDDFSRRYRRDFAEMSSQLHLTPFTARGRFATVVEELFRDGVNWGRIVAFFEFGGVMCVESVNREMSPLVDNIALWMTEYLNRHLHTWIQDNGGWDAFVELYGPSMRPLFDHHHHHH
(In TR-FRET formats the signal depends on donor and acceptor labels being close together.)

Turning to `CCc1c2c(nn1C)C(CCC1CCOCC1)N(C)S(=O)(=O)CCCn1c(C(=O)O)c(CCCOc3cccc4cc(F)ccc34)c3ccc(Cl)c-2c31` (racemic) [Example 60, (rac)-4-chloro-3-ethyl-7-{3-[(6-fluoro-1-naphthyl)oxy]propyl}-2,14-dimethyl-15-[2-(tetrahydro-2H-pyran-4-yl)ethyl]-11,12,14,15-tetrahydro-2H,10H-pyrazolo[3′,4′:4,5][1,2,8]thiadiazacycloundecino[6,7,8-hi]indole-8-carboxylic acid 13,13-dioxide (Racemate 1)], the IC50 came to 3.9e-08 M with SUDHL10 [1], 1.9e-07 M in the series on HMC-1-8 (72 hours), 1.8e-08 M in the series with SUDHL5 [2] (72 hours) and 4.4e-08 M in the series with AMO-1. The EC50 with SUDHL5 [3] (3 hours) stood at 0.018 µM; in the series with SUDHL10 [4] (3 hours), 0.032 µM.
As to `CCc1c2c(nn1C)C(CCN1CCOCC1)N(C)S(=O)(=O)CCCn1c(C(=O)O)c(CCCOc3cccc4cc(F)ccc34)c3ccc(Cl)c-2c31` (racemic) [Example 73, (rac)-(4-chloro-3-ethyl-7-{3-[(6-fluoronaphthalen-1-yl)oxy]propyl}-2,14-dimethyl-15-[2-(morpholin-4-yl)ethyl]-13,13-dioxo-10,11,12,13,14,15-hexahydro-2H-13lambda^6-pyrazolo[3′,4′:4,5][1,2,8]thiadiazacycloundecino[6,7,8-hi]indole-8-carboxylic acid (Racemate 1)], the IC50 was 1e-06 M in the series with HMC-1-8 (72 hours); 1.5e-08 M in the series on SUDHL5 [2] (72 hours); 2.6e-08 M and 2.5e-08 M with AMO-1. Further, the EC50 was 0.023 µM on SUDHL5 [3] (3 hours) and 0.23 µM at SUDHL10 [4] (3 hours).
Regarding `Cc1c2c(nn1C)C(CCN1CCOCC1)N(C)S(=O)(=O)CCCn1c(C(=O)O)c(CCCOc3cccc4ccccc34)c3cccc-2c31` (single isomer, unassigned; enantiomer 2) [Example 46, 2,3,14-trimethyl-15-[2-(morpholin-4-yl)ethyl]-7-{3-[(naphthalen-1-yl)oxy]propyl}-13,13-dioxo-10,11,12,13,14,15-hexahydro-2H-13lambda^6-pyrazolo[3′,4′:4,5][1,2,8]thiadiazacycloundecino[6,7,8-hi]indole-8-carboxylic acid N-ethylethanamine Salt (Enantiomer 2)], the IC50 was 6.1e-07 M in the series with SUDHL10 [1]; 9.4e-06 M and 1.2e-05 M in the series on HMC-1-8 (72 hours); 3e-07 M with SUDHL5 [2] (72 hours); 5.3e-07 M and 5e-07 M in the series with AMO-1. The values for the EC50 with SUDHL5 [3] (3 hours) and in the series on SUDHL10 [4] (3 hours) were 0.39 µM and 0.38 µM, respectively.
On to `Cc1c2c(nn1C)CNS(=O)(=O)CCCn1c(C(=O)O)c(CCCOc3cccc4cc(F)ccc34)c3ccc(Cl)c-2c31` (racemic) [Example 50, (rac)-4-chloro-7-{3-[(6-fluoro-1-naphthyl)oxy]propyl}-2,3-dimethyl-11,12,14,15-tetrahydro-2H,10H-pyrazolo[3′,4′:4,5][1,2,8]thiadiazacycloundecino[6,7,8-hi]indole-8-carboxylic acid 13,13-dioxide], for which the IC50 in the series with SUDHL10 [1] (Homo sapiens, SU-DHL10, 5 h) is 3.8e-06 M; against BCL-2, above 20 µM; in the series with HMC-1-8 (72 h), 3e-05 M; with SUDHL5 [2] (Homo sapiens, SU-DHL-5, 72 h), 2e-06 M. The EC50 with SUDHL5 [3] (Homo sapiens, SU-DHL-5, 3 h) stood at 0.65 µM; with SUDHL10 [4] (Homo sapiens, SU-DHL10, 3 h), 2.8 µM.
As for `COc1ccc(CN2Cc3nn(C)c(C)c3-c3c(Cl)ccc4c(CCCOc5cccc6cc(F)ccc56)c(C(=O)O)n(c34)CCCS2(=O)=O)c(OC)c1` (racemic) [Example 49, (rac)-4-chloro-14-(2,4-dimethoxybenzyl)-7-{3-[(6-fluoro-1-naphthyl)oxy]propyl}-2,3-dimethyl-11,12,14,15-tetrahydro-2H,10H-pyrazolo[3′,4′:4,5][1,2,8]thiadiazacycloundecino[6,7,8-hi]indole-8-carboxylic acid 13,13-dioxide], the IC50 with SUDHL10 [1] (Homo sapiens, SU-DHL10, 5 h) stood at 2.2e-07 M; on BCL-2, 20 µM; in the series on HMC-1-8 (72 h) it was 7.8e-06 M; with HMC-1-8 (72 hours), 5.8e-06 M; in the series with SUDHL5 [2] (Homo sapiens, SU-DHL-5, 72 h), 8.5e-07 M. Moreover, the EC50 with SUDHL5 [3] (Homo sapiens, SU-DHL-5, 3 h) amounted to 0.21 µM; with SUDHL10 [4] (Homo sapiens, SU-DHL10, 3 h) it was 0.27 µM.
Regarding `CCNCC.CCc1c2c(nn1C)C(CCN1CCOCC1)N(C)S(=O)(=O)CCCn1c(C(=O)O)c(CCCOc3cccc4cc(F)ccc34)c3ccc(Cl)c-2c31` (single isomer, unassigned; enantiomer 2) [Example 76, 4-chloro-3-ethyl-7-{3-[(6-fluoronaphthalen-1-yl)oxy]propyl}-2,14-dimethyl-15-[2-(morpholin-4-yl)ethyl]-13,13-dioxo-10,11,12,13,14,15-hexahydro-2H-13lambda^6-pyrazolo[3′,4′:4,5][1,2,8]thiadiazacycloundecino[6,7,8-hi]indole-8-carboxylic acid-N-ethylethanamine Salt (Enantiomer 2)], the IC50 with SUDHL10 [1] is 8.2e-09 M; in the series with HMC-1-8 (72 hours) it was 3.5e-07 M and 4.1e-07 M; in the series on SUDHL5 [2] (72 hours), 5.7e-09 M. Further, the EC50 on SUDHL5 [3] (3 hours) worked out at 0.0065 µM; at SUDHL10 [4] (3 hours), 0.0055 µM.
As for `CCc1c2c(nn1C)CN(CC)S(=O)(=O)CCCn1c(C(=O)O)c(CCCOc3cccc4cc(F)ccc34)c3ccc(Cl)c-2c31` (racemic) [Example 56, (rac)-4-chloro-3,14-diethyl-7-{3-[(6-fluoro-1-naphthyl)oxy]propyl}-2-methyl-11,12,14,15-tetrahydro-2H,10H-pyrazolo[3′,4′:4,5][1,2,8]thiadiazacycloundecino[6,7,8-hi]indole-8-carboxylic acid 13,13-dioxide], the IC50 in the series on SUDHL10 [1] (Homo sapiens, SU-DHL10, 5 h) was 2.5e-07 M; in the series on HMC-1-8 (72 h), 1.5e-06 M; with HMC-1-8 (72 hours) it was 2.3e-06 M and 2.7e-06 M; in the series on SUDHL5 [2] (Homo sapiens, SU-DHL-5, 72 h) it was 9.6e-08 M. Further, the EC50 in the series on SUDHL5 [3] (Homo sapiens, SU-DHL-5, 3 h) came to 0.2 µM; in the series on SUDHL10 [4] (Homo sapiens, SU-DHL10, 3 h), 0.16 µM.
As to `CCc1c2c(nn1C)CN(C1CC1)S(=O)(=O)CCCn1c(C(=O)O)c(CCCOc3cccc4cc(F)ccc34)c3ccc(Cl)c-2c31` (single isomer, unassigned; enantiomer 1) [Example 54, (−)-4-chloro-14-cyclopropyl-3-ethyl-7-{3-[(6-fluoronaphthalen-1-yl)oxy]propyl}-2-methyl-13,13-dioxo-10,11,12,13,14,15-hexahydro-2H-13lambda^6-pyrazolo[3′,4′:4,5][1,2,8]thiadiazacycloundecino[6,7,8-hi]indole-8-carboxylic acid N-ethylethanamine Salt (Enantiomer 1)], the IC50 with SUDHL10 [1] was 6.5e-07 M; in the series with HMC-1-8 (72 hours) it was 2.2e-06 M and 2.5e-06 M; in the series on SUDHL5 [2] (72 hours), 4.1e-07 M. Besides, the EC50 with SUDHL5 [3] (3 hours) came to 0.26 µM; in the series with SUDHL10 [4] (3 hours), 0.52 µM.
Turning to `Cc1c2c(nn1C)C(CCN1CCOCC1)N(C)S(=O)(=O)CCCn1c(C(=O)O)c(CCCOc3cccc4cc(F)ccc34)c3ccc(Cl)c-2c31` (racemic) [Example 48, (rac)-4-chloro-7-{3-[(6-fluoro-1-naphthyl)oxy]propyl}-2,3,14-trimethyl-15-(rac)-[2-(morpholin-4-yl)ethyl]-11,12,14,15-tetrahydro-2H,10H-pyrazolo[3′,4′:4,5][1,2,8]thiadiazacycloundecino[6,7,8-hi]indole-8-carboxylic acid 13,13-dioxide (Mixture of Stereoisomers)], the concentration for half-maximal inhibition (IC50) in the series with SUDHL10 [1] is 1.2e-08 M; on BCL-2, above 20 µM; with HMC-1-8 (72 hours), 9.8e-07 M and 9.3e-07 M; in the series on SUDHL5 [2] (Homo sapiens, SU-DHL-5, 72 h), 3.1e-08 M. Moreover, the EC50 was determined as 0.013 µM in the series on SUDHL5 [3] (3 hours) and 0.0097 µM in the series on SUDHL10 [4] (3 hours).
As for `CCc1c2c(nn1C)CN(C1CC1)S(=O)(=O)CCCn1c(C(=O)O)c(CCCOc3cccc4cc(F)ccc34)c3ccc(Cl)c-2c31` (racemic) [Example 53, (rac)-4-chloro-14-cyclopropyl-3-ethyl-7-{3-[(6-fluoro-1-naphthyl)oxy]propyl}-2-methyl-11,12,14,15-tetrahydro-2H,10H-pyrazolo[3′,4′:4,5][1,2,8]thiadiazacycloundecino[6,7,8-hi]indole-8-carboxylic acid 13,13-dioxide], the IC50 with SUDHL10 [1] was 9e-07 M; with HMC-1-8 (72 hours) it was 5e-06 M and 6.4e-06 M and 7.7e-06 M; in the series on SUDHL5 [2] (72 hours) it was 5.9e-07 M. In addition, the results for the EC50 with SUDHL5 [3] (3 hours) and in the series on SUDHL10 [4] (3 hours) were 0.55 µM and 0.77 µM, respectively.
Consider `Cc1c2c(nn1C)C(N1CCOCC1)CCN(C)S(=O)(=O)CCCn1c(C(=O)O)c(CCCOc3cccc4cc(F)ccc34)c3ccc(Cl)c-2c31` (racemic) [Example 47, (rac)-15-chloro-1-(3-((6-fluoronaphthalen-1-yl)oxy)propyl)-8,13,14-trimethyl-11-(rac)-morpholino-5,6,9,10,11,13-hexahydro-4H,8H-pyrazolo[3′,4′:6,7][1]thia[2,10]diazacyclotridecino[8,9,10-hi]indole-2-carboxylic acid 7,7-dioxide (Mixture of Stereoisomers)], for which the IC50 was 3.4e-07 M in the series on SUDHL10 [1] (Homo sapiens, SU-DHL10, 5 h); above 20 µM against BCL-2; 8e-06 M in the series on HMC-1-8 (72 h); 1.2e-05 M in the series with HMC-1-8 (72 hours); 6.3e-07 M with SUDHL5 [2] (Homo sapiens, SU-DHL-5, 72 h). Also, the EC50 was determined as 0.22 µM in the series with SUDHL5 [3] (Homo sapiens, SU-DHL-5, 3 h) and 0.32 µM in the series with SUDHL10 [4] (Homo sapiens, SU-DHL10, 3 h).
